Experimental data as given in PMC13099959, “Context-dependent activation and evolutionary buffering of a mating pheromone in fission yeast” (Communications Biology, 2026).
No end group written: not given here. Far = not defined here

Columns and labels:
M-factor receptor Map3 = target: T1, M-factor receptor Map3 (Schizosaccharomyces pombe, UniProt P31397); assay: In vitro M-factor activity assay using a map4 promoter–lacZ fusion (β-galactosidase); format: cell-based; conditions: synthetic peptide 10 µM, map4-lacZ reporter strain, nitrogen-free SSL medium, pH 5.5 or 7.0
T1 construct: Tester strain TS472 was inoculated into 5 mL SSL + N medium; endogenous in cells; host or cells: S. pombe tester strain TS472 (map4 promoter-lacZ reporter)
T1 sequence (P31397 1-365): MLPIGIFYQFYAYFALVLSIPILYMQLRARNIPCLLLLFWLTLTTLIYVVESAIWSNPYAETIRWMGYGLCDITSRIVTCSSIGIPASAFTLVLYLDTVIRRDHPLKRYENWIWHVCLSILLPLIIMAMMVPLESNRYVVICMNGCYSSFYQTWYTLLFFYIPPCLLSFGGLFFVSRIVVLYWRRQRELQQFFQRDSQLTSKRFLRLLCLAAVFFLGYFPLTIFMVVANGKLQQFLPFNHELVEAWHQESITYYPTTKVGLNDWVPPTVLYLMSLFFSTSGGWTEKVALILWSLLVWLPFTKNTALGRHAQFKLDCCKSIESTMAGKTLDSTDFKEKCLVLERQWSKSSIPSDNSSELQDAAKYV
Procedure: β-galactosidase activity was measured to evaluate activation of the M-factor receptor Map3 using synthetic M-factor peptides, following a previously described method[22]. Tester strain TS472 was inoculated into 5 mL SSL + N medium (SSA without agar) at an initial OD600 of 0.1 and cultured at 30 °C for 20 h. Cells were washed three times with SSL–N medium (lacking 0.5 g/L aspartic acid) and resuspended in SSL–N at varying pH values (adjusted with HCl or NaOH) to OD600 = 2.0.
Thereafter, cells were washed and resuspended in Z-buffer (60 mM Na2HPO4, 40 mM NaH2PO4, 10 mM KCl, 1 mM MgSO4·7H2O, and 50 mM β-mercaptoethanol; pH 7.0) to OD600 = 5.0. For each replicate (n = 3), 200 µL of cell suspension was mixed with 600 µL Z-buffer, 15 µL chloroform, and 12 µL 0.1% SDS, vortexed, and incubated at 30 °C for 5 min. Reactions were initiated with 160 µL o-nitrophenyl-β-D-galactopyranoside (ONPG; 4 mg/mL in Z-buffer), and both start and end times were recorded. After incubation at 30 °C, reactions were terminated with 400 µL 1 M Na2CO3, centrifuged (13,000 rpm, 3 min, 4 °C), and 200 µL supernatant was diluted into 1 mL 0.33 M Na2CO3. Absorbance at 420 nm (OD420) was measured to calculate Miller units. Miller units=(OD420×1000)/(V×t×OD600) where V is reaction volume (mL) and t is reaction time (minute). Data are reported as the mean ± s.d. […]

[1] = test system: S. pombe h90 strains (mating and sporulation); assay: Frequency of zygote formation (microscopy-based mating frequency); format: cell-based, Schizosaccharomyces pombe
Procedure: Cells were pre-cultured on YEA medium at 30 °C overnight, washed with 1 mL sterilized water (10,000 rpm, 3 min, 4 °C), and adjusted to an OD600 of 5.0. Aliquots (30 µL) were spotted on YEA, MEA, SSA, or fruit/vegetable juice media (grape, orange, apple, vegetable) and incubated at 30 °C for 48 h. After 48 h, cells were harvested and examined using a differential interference contrast microscopy (BX53, Olympus, Tokyo, Japan) with the UPlanSApo 60×/1.35 NA oil-immersion objective, ORCA-spark camera (Hamamatsu Photonics, Hamamatsu, Japan), and CellSens software. Nine random fields were imaged per plate. Mating rates were calculated as in Seike et al.[11] using the equation: Mating rate(%)=2Z+2A+0.5S×100/V+2Z+2A+0.5S where V, Z, A, and S represent vegetative cells, zygotes, asci, and spores, respectively. Data are reported as the mean ±s.d.
All statistical analyses treated biological replicates (n = 3) as the unit of replication. Unless stated otherwise, values are reported as mean ± s.d., tests were two-sided, and no data were excluded. For two-group comparisons we used Welch’s t test (unequal variances). Significance in figures is denoted as p < 0.05, p < 0.01, and p < 0.001. […] For microscopy-based mating assays, nine random fields were scored per plate; field values were averaged within each biological replicate to avoid pseudoreplication. […] Analyses were performed in Python (pandas, numpy, math); plots were generated using matplotlib and seaborn.

Substance	pH dependence of β-galactosidase activity (Map3 activation) (M-factor receptor Map3)	Mating competence at pH 5.5 ([1]; SSA pH 5.5, 48 h)	Cells forming mature asci ([1]; SSA pH 7.5–8.5, 48 h)	Effect on mating in background with intact mfm2+ and mfm3+ genes ([1]; mfm1-P36H in h90 mfm2+ mfm3+ background, SSA pH 5.5 and pH 7.0)
T2Q: M-factor single-amino acid variant; also tested as synthetic peptide (Eurofins) (YQPKVPYMC(Far)-OMe; ends and bridges not checked; UniProt P34068 31-39, looked up, variant T32Q)	higher activity at acidic pH			
P6H: M-factor single-amino acid variant; also tested as synthetic peptide (Eurofins) (YTPKVHYMC(Far)-OMe; ends and bridges not checked; UniProt P34068 31-39, looked up, variant P36H)		virtually sterile	approximately 50%	does not exert a dominant-negative effect on mating
